Laboratory results as given in PubChem BioAssay (NCI).
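A five-concentration, 48-hour dose response in 96-well plates underlies each endpoint, interpolated linearly between surrounding concentrations. GI50 is the concentration that inhibits growth by half. TGI is the concentration that stops growth completely.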

Key:
Experiment in all cases: NCI anticancer screen, dose series, 48 h; in the data active means GI50 below about 0.43 µM; inactive means the rest
DU-145 prostate = test system: DU-145 prostate
M14 melanoma = test system: M14 melanoma
OVCAR-8 ovarian = test system: OVCAR-8 ovarian
SF-268 CNS = test system: SF-268 CNS
SF-295 CNS = test system: SF-295 CNS
SK-MEL-2 melanoma = test system: SK-MEL-2 melanoma
SNB-19 CNS = test system: SNB-19 CNS
UACC-257 melanoma = test system: UACC-257 melanoma
UACC-62 melanoma = test system: UACC-62 melanoma
MALME-3M melanoma = test system: MALME-3M melanoma

CCOC(=O)c1c(C)n2c(=O)cc(C)c3c(O)c(O)cc1c32
7.65 µM: TGI (UACC-257 melanoma)
inactive: GI50 (DU-145 prostate) 29.1 µM | GI50 (M14 melanoma) 53.3 µM | GI50 (OVCAR-8 ovarian) 2.7 µM | GI50 (SF-268 CNS) 5.88 µM | GI50 (SF-295 CNS) 10.3 µM | GI50 (SK-MEL-2 melanoma) 20.9 µM | GI50 (SNB-19 CNS) 8.72 µM | GI50 (UACC-257 melanoma) 2.7 µM | GI50 (UACC-62 melanoma) 8.9 µM
9.32 µM: TGI (OVCAR-8 ovarian)
> 100 µM: TGI (DU-145 prostate) | TGI (M14 melanoma) | TGI (SF-268 CNS) | TGI (SF-295 CNS) | TGI (SK-MEL-2 melanoma) | TGI (SNB-19 CNS)
29.3 µM: TGI (UACC-62 melanoma)

COC(=O)C(C(=O)C(=O)Nc1nc(=S)[nH][nH]1)c1csc(-n2nc(-c3ccccc3)cc2-c2ccccc2)n1 (stereo not drawn)
> 100 µM: TGI (M14 melanoma) | TGI (MALME-3M melanoma) | TGI (OVCAR-8 ovarian) | TGI (SF-268 CNS) | TGI (SNB-19 CNS) | TGI (UACC-257 melanoma) | TGI (UACC-62 melanoma)

N/N=C(\C(=O)Nc1ccc(Cl)cc1Cl)C(c1cnc2ccccc2n1)[N+](=O)[O-] (stereo not drawn)
> 100 µM: TGI (M14 melanoma) | TGI (MALME-3M melanoma) | TGI (OVCAR-8 ovarian) | TGI (SF-268 CNS) | TGI (SF-295 CNS) | TGI (SK-MEL-2 melanoma) | TGI (UACC-257 melanoma) | TGI (UACC-62 melanoma)

C=C(C)[C@@H]1CC[C@]2(C(=O)O)CC[C@]3(C)[C@H](CC[C@@H]4[C@@]5(C)C[C@@H](CC#Cc6ccc(C(F)(F)F)cc6)[C@H](O)C(C)(C)[C@@H]5CC[C@]43C)[C@@H]12
inactive: GI50 (DU-145 prostate) 3.52 µM | GI50 (OVCAR-8 ovarian) 3.55 µM | GI50 (SK-MEL-2 melanoma) 2.08 µM | GI50 (SNB-19 CNS) 3.29 µM
> 100 µM: TGI (DU-145 prostate) | TGI (OVCAR-8 ovarian) | TGI (SNB-19 CNS)
4.58 µM: TGI (SK-MEL-2 melanoma)

CC[P+](C)(C)c1ccccc1
> 100 µM: TGI (M14 melanoma) | TGI (MALME-3M melanoma) | TGI (OVCAR-8 ovarian) | TGI (SF-268 CNS) | TGI (SF-295 CNS) | TGI (SK-MEL-2 melanoma) | TGI (SNB-19 CNS) | TGI (UACC-257 melanoma) | TGI (UACC-62 melanoma)

CC1C[C@H](C)CC(C(O)CC2CC(=O)N(Cc3ccccc3)C(=O)C2)C1O (stereo partly drawn)
> 100 µM: TGI (M14 melanoma) | TGI (MALME-3M melanoma) | TGI (OVCAR-8 ovarian) | TGI (SF-268 CNS) | TGI (SF-295 CNS) | TGI (SNB-19 CNS) | TGI (UACC-257 melanoma) | TGI (UACC-62 melanoma)

CC1(C)C(O)C[C@@H](O)[C@@]2(C)C1CC[C@]1(C)C2C[C@@H](O)[C@@H]2C([C@@]3(C)CC[C@@H](C(C)(C)O)O3)CCC21C (stereo partly drawn)
28.9 µM: TGI (SK-MEL-2 melanoma)
30.2 µM: TGI (SF-295 CNS)
31.8 µM: TGI (MALME-3M melanoma)
36.6 µM: TGI (OVCAR-8 ovarian)
30.4 µM: TGI (SNB-19 CNS)
32 µM: TGI (SF-268 CNS)
27.7 µM: TGI (M14 melanoma)
22.6 µM: TGI (UACC-62 melanoma)
> 54.1 µM: TGI (UACC-257 melanoma)

O=C(CN(/C=C/C(=O)C(F)(F)F)c1ccc(Cl)cc1)c1ccccc1
22.9 µM: TGI (M14 melanoma)
35.6 µM: TGI (SK-MEL-2 melanoma)
inactive: GI50 (DU-145 prostate) 18 µM | GI50 (M14 melanoma) 10.6 µM | GI50 (OVCAR-8 ovarian) 44 µM | GI50 (SF-268 CNS) > 100 µM | GI50 (SF-295 CNS) 12.1 µM | GI50 (SK-MEL-2 melanoma) 15.5 µM | GI50 (SNB-19 CNS) 33 µM | GI50 (UACC-257 melanoma) 14.5 µM | GI50 (UACC-62 melanoma) 11.7 µM
34.9 µM: TGI (UACC-257 melanoma)
26.4 µM: TGI (UACC-62 melanoma)
> 100 µM: TGI (OVCAR-8 ovarian) | TGI (SF-268 CNS) | TGI (SNB-19 CNS)
41.4 µM: TGI (SF-295 CNS)
43.4 µM: TGI (DU-145 prostate)

CC(/C(=N\Nc1ccccc1)c1ccc(O)cc1)C1C(=O)Oc2ccccc21 (stereo not drawn)
> 100 µM: TGI (M14 melanoma) | TGI (MALME-3M melanoma) | TGI (OVCAR-8 ovarian) | TGI (SF-295 CNS) | TGI (SK-MEL-2 melanoma) | TGI (SNB-19 CNS) | TGI (UACC-257 melanoma) | TGI (UACC-62 melanoma)

CNCc1cc(OC)ccc1-c1ccc(OC)c(OC)c1OC
> 100 µM: TGI (M14 melanoma) | TGI (MALME-3M melanoma) | TGI (OVCAR-8 ovarian) | TGI (SF-268 CNS) | TGI (SF-295 CNS) | TGI (SK-MEL-2 melanoma) | TGI (SNB-19 CNS) | TGI (UACC-257 melanoma) | TGI (UACC-62 melanoma)

CC1CC(=O)Nc2ccccc2N1C(=O)CN1CCC(CCCCN(C)C)CC1 (stereo not drawn)
> 100 µM: TGI (M14 melanoma) | TGI (MALME-3M melanoma) | TGI (OVCAR-8 ovarian) | TGI (SF-268 CNS) | TGI (SF-295 CNS) | TGI (SK-MEL-2 melanoma) | TGI (SNB-19 CNS) | TGI (UACC-257 melanoma) | TGI (UACC-62 melanoma)

O=C1CCC2CC(C(=O)c3ccccc3)CCC2CN1 (stereo not drawn) (tested in a mixture with another compound)
> 100 µM: TGI (M14 melanoma) | TGI (MALME-3M melanoma) | TGI (OVCAR-8 ovarian) | TGI (SF-268 CNS) | TGI (SF-295 CNS) | TGI (SK-MEL-2 melanoma) | TGI (SNB-19 CNS) | TGI (UACC-257 melanoma) | TGI (UACC-62 melanoma)

CCOC(=O)CSC(=O)NCCCl
> 100 µM: TGI (M14 melanoma) | TGI (MALME-3M melanoma) | TGI (OVCAR-8 ovarian) | TGI (SF-268 CNS) | TGI (SF-295 CNS) | TGI (SK-MEL-2 melanoma) | TGI (SNB-19 CNS) | TGI (UACC-257 melanoma) | TGI (UACC-62 melanoma)

CC1SC2=NC3=C(c4ccccc4C3=O)C(c3ccc(Cl)cc3)N2C1=O (stereo not drawn)
> 100 µM: TGI (M14 melanoma) | TGI (MALME-3M melanoma) | TGI (OVCAR-8 ovarian) | TGI (SF-268 CNS) | TGI (SF-295 CNS) | TGI (SK-MEL-2 melanoma) | TGI (SNB-19 CNS) | TGI (UACC-257 melanoma) | TGI (UACC-62 melanoma)

CCCCCCCCCCCCCC(=O)OCC1OC(n2cc(F)c(=O)[nH]c2=O)C(NC(=O)OCc2ccccc2)C(OC(=O)CCCCCCCCCCCCC)C1O (stereo not drawn)
> 100 µM: TGI (M14 melanoma) | TGI (MALME-3M melanoma) | TGI (OVCAR-8 ovarian) | TGI (SF-268 CNS) | TGI (SF-295 CNS) | TGI (SK-MEL-2 melanoma) | TGI (SNB-19 CNS) | TGI (UACC-257 melanoma) | TGI (UACC-62 melanoma)

CC1=NOC(=O)/C1=C/c1cccc2ccccc12
> 100 µM: TGI (M14 melanoma) | TGI (MALME-3M melanoma) | TGI (OVCAR-8 ovarian) | TGI (SF-268 CNS) | TGI (SF-295 CNS) | TGI (SK-MEL-2 melanoma) | TGI (SNB-19 CNS) | TGI (UACC-257 melanoma) | TGI (UACC-62 melanoma)

Cc1ccc(S(=O)(=O)N2CCSCCN(S(=O)(=O)c3ccc(C)cc3)CCN(S(=O)(=O)c3ccc(C)cc3)CC2)cc1
> 100 µM: TGI (DU-145 prostate) | TGI (M14 melanoma) | TGI (OVCAR-8 ovarian) | TGI (SF-268 CNS) | TGI (SF-295 CNS) | TGI (SNB-19 CNS) | TGI (UACC-62 melanoma)
79.9 µM: TGI (SK-MEL-2 melanoma)

CC(=O)Nc1cc(N(CCOS(C)(=O)=O)CCOS(C)(=O)=O)ccc1N=O
> 100 µM: TGI (M14 melanoma) | TGI (MALME-3M melanoma) | TGI (OVCAR-8 ovarian) | TGI (SF-268 CNS) | TGI (SF-295 CNS) | TGI (SK-MEL-2 melanoma) | TGI (SNB-19 CNS) | TGI (UACC-257 melanoma) | TGI (UACC-62 melanoma)

COC(=O)/C(=N\Nc1nc(=S)[nH]n1N)C(C#N)c1ccccc1 (stereo not drawn)
> 100 µM: TGI (M14 melanoma) | TGI (MALME-3M melanoma) | TGI (OVCAR-8 ovarian) | TGI (SF-268 CNS) | TGI (SK-MEL-2 melanoma) | TGI (SNB-19 CNS) | TGI (UACC-257 melanoma) | TGI (UACC-62 melanoma)

COc1ccc(C2CC(c3cc(C)ccc3O)=NC(N)=N2)cc1 (stereo not drawn)
> 100 µM: TGI (M14 melanoma) | TGI (MALME-3M melanoma) | TGI (OVCAR-8 ovarian) | TGI (SF-268 CNS) | TGI (SF-295 CNS) | TGI (SNB-19 CNS) | TGI (UACC-257 melanoma) | TGI (UACC-62 melanoma)

NC(N)=N/N=C/c1c(-c2cc(Cl)sc2Cl)nc2sccn12
3.9 µM: TGI (SF-268 CNS)
> 50 µM: TGI (M14 melanoma) | TGI (SK-MEL-2 melanoma)
inactive: GI50 (M14 melanoma) > 50 µM | GI50 (OVCAR-8 ovarian) 1.04 µM | GI50 (SF-268 CNS) 1.26 µM | GI50 (SF-295 CNS) 1.62 µM | GI50 (SK-MEL-2 melanoma) 2.72 µM | GI50 (UACC-257 melanoma) 8.6 µM | GI50 (UACC-62 melanoma) 0.752 µM
2.84 µM: TGI (OVCAR-8 ovarian)
17.6 µM: TGI (UACC-257 melanoma)
6.15 µM: TGI (SF-295 CNS)
1.46 µM: TGI (UACC-62 melanoma)
